Data set [1] concerns circulating platelets. The data set is described as follows: Number of circulating platelets in mice after a single intraperitoneal injection (thrombocytopenia). The note with it: for thrombocytopenia: after injection of the compound; for Lowest thrombocyte count / Time to lowest count: single intraperitoneal injection.
The subject of data set [2] is permeabilized Bcl-xL dependent Molt-4 cells. The data set is described as follows: Cytochrome C release in selectively (digitonin) permeabilized Molt-4 cells. It counts as cell-based, human. The note with it: Homo sapiens, MOLT-4, 4 h, 4 h treatment, read-out: Molt-4 Permeabilized Cyt C Release. The method in brief:
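Bcl-xL-dependent Molt-4 cells (1×10^6) treated 4 h at 37° C, 5% CO2 with compound in half-log dilutions from 3.0 to 0.01 μM. Plasma membrane selectively permeabilized with digitonin to wash out cytosolic cytochrome C released from mitochondria; release measured as apoptosis proxy.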

In data set [3] the test system is Molt-4 human acute lymphoblastic leukemia cells. In words: Molt-4 cell viability assay (CellTiter-Glo, 48 hours, 10% HS). It counts as cell-based. The note with it: Homo sapiens, MOLT-4, 48 h, non-permeabilized cells. The method in brief:
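Cells were seeded at 12,500 per well in medium with 10% human serum and exposed to a 3-fold compound dilution series from 10 μM to 0.0005 μM. After 48 h, viable cells were quantified by CellTiter-Glo luminescence. Each concentration was run in duplicate on at least 3 occasions.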
(In general: Cellular ATP, detected with luciferase, serves as a proxy for viable cell number.)

The target of another data set is Bcl-xL (Homo sapiens, UniProt Q07817). In words: Time Resolved-Fluorescence Resonance Energy Transfer (TR-FRET) binding assay, competition with probe F-Bak. The note with it: for Ki: in the presence of 1% HS, read-out: Bcl-xL Binding Ki (nM, 1% HS); for pKi: without HS, read-out: Bcl-xL Binding Ki. The procedure, abridged:
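TR-FRET binding assay run at room temperature for 2 h after mixing compound with Bcl-xL protein, F-Bak probe and Tb-labelled antibody. Test compounds diluted from a 2× 50 μM stock. Ki values derived via Wang's equation from 520/495 nm emission under 340 nm excitation, in the absence of serum or with 1% HS.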

Data set [4] concerns permeabilized Molt-4 cells. In words: JC-1 percent depolarization assay in digitonin permeabilized Molt-4 cells. The note with it: Homo sapiens. In kind it is cell-based. The text has this: In addition to cytochrome c release, mitochondria undergoing apoptosis frequently lose their transmembrane mitochondrial membrane potential (Bouchier-Hayes et al., 2008, Methods 44(3): 222-228). JC-1 is a cationic carbocyanine dye that accumulates in mitochondria and fluoresces red when mitochondria are healthy and is lost when the mitochondrial membrane is compromised (percentage depolarization; Smiley et al., 1991, Proc. Natl. Acad. Sci. USA, 88: 3671-3675; Reers et al., 1991: Biochemistry, 30: 4480-4486). This loss in signal can be detected in permeabilized cells using a fluorimeter (excitation 545 nm and emission of 590 nm) and is therefore fully quantitative, enhancing both reproducibility and throughput. Specifically, digitonin permeabilized molt-4 cells (75,000/well) were treated with Bcl-xL inhibitors (1000 nM-0.00 nM) for up to 180 minutes at 32° C., with fluorescence determined every 10 minutes. At the maximal signal, the percentage depolarization can be determined for each time concentration of Bcl-xL inhibitors according to the formula:
% Depolarization=1−[(Sample−FCCP)/(DMSO−FCCP)]
DMSO and FCCP (10 μM) are used as negative and positive controls respectively (Ryan & Letai, 2013, Methods 61(2): 156-164). EC50 values were subsequently determined from the resulting concentration-response curves. Good alignment was observed when the ability of Bcl-xL inhibitors to induce cytochrome c release was compared to loss in JC-1 fluorescence in permeabilized Molt-4 cells.

Data set [5] deals with circulating platelets. The note with it: mouse, in vivo.

The record followed here is patent publication US20240058450A1, “BCL-XL Inhibitory Compounds Having Low Cell Permeability and Antibody Drug Conjugates Including the Same” (AbbVie Inc., priority 2014, published 2024).

What is called EC50 is the concentration giving half of the maximal effect. As usually defined, the Ki is a measure of affinity in units of concentration, obtained from inhibition or displacement. The term pKi denotes the Ki on a negative log10 scale, so that one unit is a factor of ten.

The structures appear in SMILES notation. pEC50, pKi: −log10 of the molar value. Read-outs that look alike come from different tables or passages of the source.

Bcl-xL, sequence (Q07817 whole entry): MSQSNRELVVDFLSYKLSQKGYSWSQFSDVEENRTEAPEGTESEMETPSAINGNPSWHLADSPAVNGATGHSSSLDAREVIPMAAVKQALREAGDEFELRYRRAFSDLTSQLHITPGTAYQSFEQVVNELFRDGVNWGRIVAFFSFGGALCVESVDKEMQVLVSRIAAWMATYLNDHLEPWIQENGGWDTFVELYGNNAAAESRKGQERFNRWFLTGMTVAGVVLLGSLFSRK

As to `CNCCOC12CC3(C)CC(C)(CC(Cn4ncc(-c5ccc(N6CCc7cccc(C(=O)Nc8nc9ccccc9s8)c7C6)nc5C(=O)O)c4C)(C3)C1)C2` [Example 1.13.7, 6-[8-(1,3-benzothiazol-2-ylcarbamoyl)-3,4-dihydroisoquinolin-2 (1H)-yl]-3-[1-({3,5-dimethyl-7-[2-(methylamino)ethoxy]tricyclo[3.3.1.1^3,7]dec-1-yl}methyl)-5-methyl-1H-pyrazol-4-yl]pyridine-2-carboxylic acid], in the data set with circulating platelets [1], the “time of maximal thrombocytopenia following injection” value is 6 h and the thrombocytopenia entry was “caused thrombocytopenia”. For the same molecule, the “platelet number after dosing” value with circulating platelets [1] (dose of 0.61 mg/kg) was 6*10^3 /mm^3. Moreover, the “decrease of platelet number” value in the data set with circulating platelets [1] (dose of 0.61 mg/kg, from normal count of approximately 6*10^5/mm^3) is recorded as 100 fold. In the data set with circulating platelets [1] (dose 0.61 mg/kg), the Lowest thrombocyte count was 6 1/10^3 of the platelet#/mm^3 and the “Time to lowest count” value was determined as 6 h.
In the case of `Cc1c(-c2ccc(N3CCc4cccc(C(=O)Nc5nc6ncccc6s5)c4C3)nc2C(=O)O)cnn1CC12CC3(C)CC(C)(C1)CC(OCCNCCS(=O)(=O)O)(C3)C2` [Example 1.23, 3-{1-[(3,5-dimethyl-7-{2-[(2-sulfoethyl)amino]ethoxy}tricyclo[3.3.1.1^3,7]dec-1-yl)methyl]-5-methyl-1H-pyrazol-4-yl}-6-[8-([1,3]thiazolo[4,5-b]pyridin-2-ylcarbamoyl)-3,4-dihydroisoquinolin-2 (1H)-yl]pyridine-2-carboxylic acid], the values for the pEC50 in data set [2] and in data set [4] were more than 9.30 and 9.62, respectively. The same molecule registered a half-maximal effective concentration (EC50) in data set [3] of 2720 nM. Further, the Ki at Bcl-xL amounted to 0.1 nM. Also, the negative-log Ki (pKi) at Bcl-xL was 11.22.
In the same order, the values of `CNCCOC12CC3(C)CC(C)(CC(Cn4ncc(-c5ccc(N6CCc7c(OCC(=O)O)ccc(C(=O)Nc8nc9ccccc9s8)c7C6)nc5C(=O)O)c4C)(C3)C1)C2` [Example 1.41, 6-[8-(1,3-benzothiazol-2-ylcarbamoyl)-5-(carboxymethoxy)-3,4-dihydroisoquinolin-2 (1H)-yl]-3-[1-({3,5-dimethyl-7-[2-(methylamino)ethoxy]tricyclo[3.3.1.1^3,7]dec-1-yl}methyl)-5-methyl-1H-pyrazol-4-yl]pyridine-2-carboxylic acid] are more than 9.30, 9.25, 473 nM, 0.81 nM and 11.10.
For the molecule `Cc1c(-c2ccc(N3CCc4cccc(C(=O)Nc5nc6ccccc6s5)c4C3)nc2C(=O)O)cnn1CC12CC3CC(CC(C3)C1)C2` [Example A-1331852, reference compound], in the data set on circulating platelets [1], the “time of maximal thrombocytopenia following injection” value was found to be 6 h and the thrombocytopenia entry is on record as “caused thrombocytopenia”. In the data set with circulating platelets [1] (dose 25 mg/kg), the Lowest thrombocyte count is 9 1/10^3 of the platelet#/mm^3 and the “Time to lowest count” value is 6 h.
Take `CC1(C)CCC(c2ccc(Cl)cc2)=C(CN2CCN(c3ccc(C(=O)NS(=O)(=O)c4ccc(N[C@H](CCN5CCOCC5)CSc5ccccc5)c(S(=O)(=O)C(F)(F)F)c4)cc3)CC2)C1` [Navitoclax]: in the data set on circulating platelets [5], the thrombocytopenia entry is given as “caused thrombocytopenia” and the “time of maximal thrombocytopenia following injection” value amounted to 6 h. The “Time to lowest count” value with circulating platelets [5] (ip, 100 mg/kg) turned out to be 6 h. The Lowest thrombocyte count in the data set on circulating platelets [5] (ip, 100 mg/kg, 6 h) is listed as 10 1/10^3 of the platelet#/mm^3.
